In patent US9066938B2, “GPBP-1 inhibition and its therapeutic use” (Fibrostatin S.L., priority 2012, dated 2015):
Structures can show the parent of a compound that is named as a salt.

What was measured:
[1] = molecular target: T1, recombinant human GPBP-1 produced in insect cells (Homo sapiens, UniProt Q9Y5P4); experiment: Affinity constants for GPBP-1 by the Benesi-Hildebrand method; assay type: binding
T1 construct: FLAG (N); made in house; host or cells: SF9 insect cells (baculovirus, pFastBac1)
T1 sequence (Q9Y5P4 1-624): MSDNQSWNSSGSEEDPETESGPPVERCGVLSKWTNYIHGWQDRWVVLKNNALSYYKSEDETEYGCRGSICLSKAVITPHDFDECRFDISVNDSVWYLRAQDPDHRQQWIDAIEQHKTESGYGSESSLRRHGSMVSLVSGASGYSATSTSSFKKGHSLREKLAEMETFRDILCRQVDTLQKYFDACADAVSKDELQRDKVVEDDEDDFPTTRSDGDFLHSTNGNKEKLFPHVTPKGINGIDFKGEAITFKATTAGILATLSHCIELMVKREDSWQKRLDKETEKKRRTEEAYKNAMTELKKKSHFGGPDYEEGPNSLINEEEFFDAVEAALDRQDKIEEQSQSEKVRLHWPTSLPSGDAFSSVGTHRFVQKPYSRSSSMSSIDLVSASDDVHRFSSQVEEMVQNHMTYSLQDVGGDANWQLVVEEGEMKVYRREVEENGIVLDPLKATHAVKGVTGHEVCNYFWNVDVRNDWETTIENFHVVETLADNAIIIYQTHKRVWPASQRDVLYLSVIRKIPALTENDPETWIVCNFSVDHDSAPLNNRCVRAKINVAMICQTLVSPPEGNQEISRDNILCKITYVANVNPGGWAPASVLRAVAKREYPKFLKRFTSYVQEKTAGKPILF
Description: FIG. 1. […] A, to assess the inhibitory activity of T12 and doxorubicin on GPBP-1 kinase activity and their synergism, approximately 200 ng of yeast FLAG-GPBP-1 from two different preparations with low and high specific activities were incubated with [γ-^32P]ATP in the absence (−) or presence (+) of the indicated compounds and concentrations. Mixtures were subjected to Western blot and autoradiographed (^32P). The levels of GPBP were further analyzed using anti-FLAG (WB). B, in the panel is shown affinity constants of the indicated compounds for recombinant human GPBP-1 produced in insect cells calculated by the Benesi-Hildebrand method. Recombinant yeast GPBP-1 was expressed in Pichia pastoris and affinity-purified as previously described (Raya et al. 1999, raya et al. 2000). To express and purify recombinant FLAG-GPBP-1 from SF9 insect cells, the cDNA of FLAG-GPBP-1 was cloned in the baculovirus expression vector pFastBac1. The plasmid was transformed into DH10Bac competent cells and the recombinant baculovirus was produced following manufacturer's recommendations (Bac-to-Bac™ Baculovirus Expression System, Invitrogen, Life Technologies). Baculovirus was used to infect SF9 cells and GPBP-1 in the supernatant of culture media was purified by affinity chromatography using anti-FLAG agarose (Sigma-Aldrich) following manufacturer's recommendations. GPBP-1 phosphorylation assays were performed as previously described (Raya et al. 1999).

[2] = system: cell cycle-related genes in A549 cells; experiment: Cell Cycle RT2 Profiler PCR Array in A549 cells; assay type: cell-based, human; details: doxorubicin 1 μM or T12 50 μM, 24 h
Description: FIG. 6. T12 and doxorubicin activate cell cycle-related genes in a similar fashion. A549 cells were treated doxorubicin (1 μM) or T12 (50 μM) for 24 h. Total RNA was purified, reverse-transcribed and subjected to Cell Cycle RT^2 Profiler PCR Array. A, shown are logarithmic scatter plots of relative mRNA levels of treated vs untreated cells. […] B, shown are bar plots of the relative expression (RQ) of the over-expressed genes indicated in A. Results are shown in fold expression respect to untreated cells.
RNA was purified from cells using the Ilustra RNAspin Mini (GE Healthcare) and the cDNA was prepared using RT^2 First Strand™ cDNA kit (Qiagen). The cDNA from treated or untreated cells was used to screen the Cell Cycle RT^2 Profiler™ PCR Array for human (PAHS-020Z, Qiagen), following manufacturer's procedures (Qiagen). qPCR was performed using RT^2 SYBR® Green ROX™ qPCR Mastermix (Qiagen) and the StepOnePlus™ Real-Time PCR System (Applied Biosystems). qPCR data were analyzed using manufacturer software.

JLSM cells = experiment: Cell viability of JLSM primary cultures (lung epidermoid carcinoma); assay type: cell-based, human; details: 36 h
Description: FIG. 14. T12 sharply reduce JLSM cell viability. A and B, JLSM cells were seeded (10.000 cells per cm^2) on collagen-I coated 96-well culture plate. Cells were settled for 4 h and subjected to the indicated treatments and cellular viability assayed after 36 h. Control bars represent cells without T12 or […]. JLSM cells were obtained from a human lung epidermoid carcinoma biopsy following standard procedures. […] Subsequently, explants were further incubated with 1 mL per well of serum-free B-ALITM air-liquid interface medium from CloneticsTM (B-ALI medium). When cells started to grow, explants were removed and cells passed to a collagen I coated flask with fresh medium. Cultures were kept in a humidified 37° C. incubator with 5% (v/v) CO2 and 95% (v/v) air. Cytotoxicity assays were performed with alamarBlue® reagent (Invitrogen) according to manufacturer's instructions. A549 cells were seeded on 96-well culture plates (7,500 cells/well) and allowed to settle during 4 h. Then, cells were cultured with individual peptidomimetics at concentrations ranging from 0 to 50 μM, in presence of doxorubicin at concentrations ranging from 0 to 10 μM for 36 h. […] Fluorescence was measured using 560EX nm/590EM nm filter settings with a SpectraMax […] […] Blank wells containing media were used to determine background fluorescence.

[3] = system: GPBP expression in A549 cells; experiment: GPBP expression in A549 cells after treatment; assay type: cell-based, human
Description: A549 cells treated for 4 weeks with 1 μM doxorubicin (A549-DR). Fifty μg of cellular lysates of A549 and A549-DR cells were analyzed by Western blot to assess the levels of GPBP using GPBP-specific mAb N27. Tubulin was stained with specific antibodies and used as loading control.
This was assessed by selecting A549 cells with doxorubicin and analyzed GPBP expression by Western blot (FIG. 15).

| Structure (SMILES) | affinity / manner of binding to GPBP-1 [1] | expression of CDKN1A (p21), GADD45A, MDM2 and SERTAD1 [2] | biological activity on JLSM primary cultures, single compound (JLSM cells) | GPBP expression in A549 cells in response to treatment [3] | binding to GPBP-1, fold stronger than T12 (affinity constants) ([1]; relative to T12) |
| --- | --- | --- | --- | --- | --- |
| COc1ccc(-c2ccc(-c3cccc(C)c3)c(C)c2)c(CCC(=O)O)c1 [T12, 3-[4″-methoxy-3,2′-dimethyl-(1,1′;4′,1″)terphenyl-2″-yl] propionic acid] | light-moderated affinity | up-regulated | highly sensitive | no evidence for increased expression of GPBP | – |
| COc1cccc2c1C(=O)c1c(O)c3c(c(O)c1C2=O)C[C@@](O)(C(=O)CO)C[C@@H]3O[C@H]1C[C@H](N)[C@H](O)[C@H](C)O1 [doxorubicin, doxorubicin hydrochloride, reference compound] | irreversible | up-regulated | virtually resistant | increased GPBP cell expression | ~10^5 fold |
